Test results: patent publication US20040229268A1, “Method and kit for identifying antibiotic-resistant microorganisms” (priority 2003, published 2004)

System: mecA gene; Staphylococcus ribosomal nucleic acids
Assay: HPA after thermal lysis, base hydrolysis and neutralization (Examples 5-7)
Type: binding, S. aureus
Description: The cultured S. aureus specimens were lysed by suspending 1 μl loops of bacteria in 150 μl of lysis buffer and then incubating at 105° C. for 15 minutes. Next, 100 μl of 2 N LiOH base solution was added and RNA was hydrolyzed by incubating the mixtures at 60° C. for 15 minutes. Hydrolyzed samples were neutralized by the addition of 100 μl of a neutralizing reagent that included 2 N HCl and 100 mM succinate buffer (pH 5.5 prior to acidification with HCl). Specifically hybridized probe was detected by standard HPA, essentially as described in Example 1.
Specimens (1 μl loops of bacteria) were treated and tested essentially as described in Example 5 with the following differences: incubation for lysis was for 15 minutes and incubation for hybridization was for 45 minutes for samples shown in Tables 7-8, while incubation for lysis was for 10 minutes and incubation for hybridization was for 20 minutes for samples shown in Table 9. All of the base-treated solutions were neutralized by the addition of 250 μl of 0.8 N HCl containing 100 mM succinate.
2′-methoxy analogs of the AE-labeled DNA probes were prepared by standard phosphoramidite synthesis using 2′ methoxy phosphoramidite analogs. Additional linker positions, which are indicated by parentheses in Table 11, for probe 2 were also prepared for testing. Deoxy probes and 2′-methoxy probe analogs were tested essentially as described in Example 5, except as noted below. Probes synthesized using 2′-methoxy nucleotide analogs are particularly identified by the “MeO” designations. Brief summaries of the procedures used to obtain the results are appended to the tables.

[1] = Table 7, lysis 15 minutes, hybridization 45 minutes
[2] = Table 8, lysis 15 minutes, hybridization 45 minutes
[3] = Table 9, lysis 10 minutes, hybridization 20 minutes
[4] = Table 10, neutralize 100 μl 2 N HCl containing 200 mM succinate, hybridize 45 minutes at 60° C.

For “GGTATGTGGAAGTTAGATTGGGATCATAGCG (AE label, linker between 13 and 14, chemistry not fully specified; listed as Staphylococcus aureus) [Probe 1]”, the RLU (Table 6, GP18(Neg), MSSA ATCC #12600) was 821 RLU, the RLU (Table 6, GP1214(Neg), MSSA ATCC #29247) was 848 RLU and the RLU (Table 6, GP1217(Pos), MRSA ATCC #33591) was 53,322 RLU. The RLU (Table 6, GP1218(Pos), MRSA ATCC #43866) was 36,730 RLU, the “GP18(Neg) RLU” value [1] was 757 RLU and the “GP1217(Pos) RLU” value [1] was 25928 RLU. For the same sequence, the “Probe alone Avg RLU” value [1] was 3668 RLU, the “GP18(Neg) RLU” value [2] was 879 RLU and the “GP1217(Pos) RLU” value [2] was 11485 RLU. For the same sequence, the “Probe alone Avg RLU” value [2] was 1123 RLU, the “GP1217(Pos) RLU” value [3] was 27256 RLU and the “Probe alone Avg RLU” value [3] was 2476 RLU. For the same sequence, the “GP1214(Neg) RLU” value [4] was 1844 RLU, the “GP1217(Pos) RLU” value [4] was 37695 RLU and the “Probe alone Avg RLU” value [4] was 2131 RLU.
